Laboratory results reported in patent publication US12364733B1, “Method for treating septic shock” (Inotrem, priority 2018, dated 2025).

Tested on: septic shock patients
Experiment: Phase IIa clinical trial with nangibotide in septic shock patients: SOFA score evolution
Type: in vivo, human
Method: This was a randomized, double-blind, two-stage, placebo-controlled study. As described in FIG. 7, the study was composed of 2 stages with a similar treatment regimen, in which 0.3, 1.0 or 3.0 mg/kg/h of nangibotide (corresponding to peptide LR12, having an amino acid sequence as set forth in SEQ ID NO: 9, also known as motrem) was tested versus placebo. All patients with a diagnosis of septic shock were considered for study participation. All potential study patients underwent standard care management procedures. Patients with evidence of septic shock according to the Sepsis-3 definition (Singer et al, JAMA 2016) were considered for inclusion (i.e., patients suffering from sepsis and having (i) persisting hypotension requiring vasopressors to maintain their mean arterial pressure ≥65 mm Hg and (ii) a serum lactate level >2 mmol/L (18 mg/dL) despite adequate volume resuscitation).
After screening for eligibility, patients were randomized to one of the treatment arms. Then, they received either a 5 mg/kg loading dose of nangibotide over 15 minutes followed by a continuous intravenous (i.v.) infusion of nangibotide or a matching placebo on top of standard of care. Treatment with study drug was initiated as early as possible, but no later than 24 hours after the onset of septic shock, defined by the start of vasopressor therapy. Patients were treated until 12 (±2) hours after the resolution of their septic shock (defined as vasopressor withdrawal) with a maximum treatment duration of 5 days (120 hours).
Adverse events (AEs) were coded using the MedDRA dictionary version 18.1. Treatment-emergent adverse events (TEAEs) were summarized and listed. Analysis was performed in 49 septic shock patients. The demographic and baseline characteristics were summarized in a descriptive fashion within each population: categorical variables were summarized by contingency tables (frequencies and percentages). sTREM-1 levels at day 1 were also described (mean, standard deviation, standard error, median, quartiles and range, minimum and maximum values). Mortality rates were reported by frequency and percentage. For continuous endpoints, i.e., the sequential organ failure assessment (SOFA), missing data were imputed using LOCF (Last Observation Carry-Forward). For time-to-event analyses, i.e., duration of invasive mechanical ventilation (IMV), duration of continuous renal replacement therapy (CRRT), survival, censored data techniques were utilized. In addition, a sensitivity analysis of time to event data (except survival) was performed using censoring at maximum limit for the corresponding observation period (i.e., either day 28 or day 90). […] The following comparisons were made: each nangibotide dose arm to placebo, all nangibotide doses combined versus placebo, and dose-response using an ordinal trend test. Exploratory composite endpoint: incidence (number and proportion) of patients alive at day 28 and free of vasopressor, free of IMV and free of CRRT were summarized by treatment and compared between treatments with a Fisher's exact test. For pharmacodynamic markers, log transformed data were represented as percentage change from baseline at day 5 or End of Infusion (EOI) if end of infusion was stopped before day 5. […] “All nangibotide” refers to analyses obtained by pooling data from 0.3, 1 and 3 mg/kg/h nangibotide-treated groups.

[1] = patients with high sTREM-1 at baseline (above median 433 pg/mL), Day 1, 0.3 mg/kg/h
[2] = patients with high sTREM-1 at baseline (above median 433 pg/mL), Day 1, 1.0 mg/kg/h
[3] = patients with high sTREM-1 at baseline (above median 433 pg/mL), Day 1, 3.0 mg/kg/h
[4] = patients with high sTREM-1 at baseline (above median 433 pg/mL), Day 1, all nangibotide doses pooled
[5] = patients with high sTREM-1 at baseline (above median 433 pg/mL), Day 2, 0.3 mg/kg/h
[6] = patients with high sTREM-1 at baseline (above median 433 pg/mL), Day 2, 1.0 mg/kg/h
[7] = patients with high sTREM-1 at baseline (above median 433 pg/mL), Day 2, 3.0 mg/kg/h
[8] = patients with high sTREM-1 at baseline (above median 433 pg/mL), Day 2, all nangibotide doses pooled
[9] = patients with high sTREM-1 at baseline (above median 433 pg/mL), Day 3, 0.3 mg/kg/h
[10] = patients with high sTREM-1 at baseline (above median 433 pg/mL), Day 3, 1.0 mg/kg/h
[11] = patients with high sTREM-1 at baseline (above median 433 pg/mL), Day 3, 3.0 mg/kg/h
[12] = patients with high sTREM-1 at baseline (above median 433 pg/mL), Day 3, all nangibotide doses pooled
[13] = patients with high sTREM-1 at baseline (above median 433 pg/mL), Day 4, 0.3 mg/kg/h
[14] = patients with high sTREM-1 at baseline (above median 433 pg/mL), Day 4, 1.0 mg/kg/h
[15] = patients with high sTREM-1 at baseline (above median 433 pg/mL), Day 4, 3.0 mg/kg/h
[16] = patients with high sTREM-1 at baseline (above median 433 pg/mL), Day 4, all nangibotide doses pooled
[17] = patients with high sTREM-1 at baseline (above median 433 pg/mL), Day 5, 1.0 mg/kg/h
[18] = patients with low sTREM-1 at baseline (below median 433 pg/mL), Day 1, 0.3 mg/kg/h
[19] = patients with low sTREM-1 at baseline (below median 433 pg/mL), Day 1, 1.0 mg/kg/h
[20] = patients with low sTREM-1 at baseline (below median 433 pg/mL), Day 1, 3.0 mg/kg/h
[21] = patients with low sTREM-1 at baseline (below median 433 pg/mL), Day 1, all nangibotide doses pooled
[22] = patients with low sTREM-1 at baseline (below median 433 pg/mL), Day 2, 0.3 mg/kg/h
[23] = patients with low sTREM-1 at baseline (below median 433 pg/mL), Day 2, 1.0 mg/kg/h
[24] = patients with low sTREM-1 at baseline (below median 433 pg/mL), Day 2, 3.0 mg/kg/h
[25] = patients with low sTREM-1 at baseline (below median 433 pg/mL), Day 2, all nangibotide doses pooled
[26] = patients with low sTREM-1 at baseline (below median 433 pg/mL), Day 3, 0.3 mg/kg/h
[27] = patients with low sTREM-1 at baseline (below median 433 pg/mL), Day 3, 1.0 mg/kg/h

nangibotide (LQEEDAGEYGCM; TLT-1 peptide)
nangibotide efficacy by baseline sTREM-1 subgroup (patients with baseline sTREM-1 above the median (above 433 pg/mL), pharmacodynamic parameters, medical support, SOFA score): more pronounced
SOFA score evolution (change versus baseline, LOCF), LSMean (SE) [1]: 0.16 (0.60)
SOFA score, estimated difference (SE) vs. placebo [1]: 0.14 (0.90)
SOFA score evolution (change versus baseline, LOCF), LSMean (SE) [2]: −0.50 (0.59)
SOFA score, estimated difference (SE) vs. placebo [2]: −0.52 (0.89)
SOFA score evolution (change versus baseline, LOCF), LSMean (SE) [3]: −0.38 (0.51)
SOFA score, estimated difference (SE) vs. placebo [3]: −0.40 (0.84)
SOFA score evolution (change versus baseline, LOCF), LSMean (SE) [4]: −0.24 (0.33)
SOFA score, estimated difference (SE) vs. placebo [4]: −0.26 (0.74)
SOFA score evolution (change versus baseline, LOCF), LSMean (SE) [5]: −1.52 (0.80)
SOFA score, estimated difference (SE) vs. placebo [5]: −1.14 (1.21)
SOFA score evolution (change versus baseline, LOCF), LSMean (SE) [6]: −2.00 (0.80)
SOFA score, estimated difference (SE) vs. placebo [6]: −1.63 (1.19)
SOFA score evolution (change versus baseline, LOCF), LSMean (SE) [7]: −0.50 (0.69)
SOFA score, estimated difference (SE) vs. placebo [7]: −0.13 (1.13)
SOFA score evolution (change versus baseline, LOCF), LSMean (SE) [8]: −1.34 (0.44)
SOFA score, estimated difference (SE) vs. placebo [8]: −0.97 (1.00)
SOFA score evolution (change versus baseline, LOCF), LSMean (SE) [9]: −2.73 (0.89)
SOFA score, estimated difference (SE) vs. placebo [9]: −2.64 (1.34)
SOFA score evolution (change versus baseline, LOCF), LSMean (SE) [10]: −2.00 (0.89)
SOFA score, estimated difference (SE) vs. placebo [10]: −1.90 (1.32)
SOFA score evolution (change versus baseline, LOCF), LSMean (SE) [11]: −0.39 (0.77)
SOFA score, estimated difference (SE) vs. placebo [11]: −0.30 (1.25)
SOFA score evolution (change versus baseline, LOCF), LSMean (SE) [12]: −1.71 (0.49)
SOFA score, estimated difference (SE) vs. placebo [12]: −1.61 (1.11)
SOFA score evolution (change versus baseline, LOCF), LSMean (SE) [13]: −3.22 (0.94)
SOFA score, estimated difference (SE) vs. placebo [13]: −2.70 (1.41)
SOFA score evolution (change versus baseline, LOCF), LSMean (SE) [14]: −1.83 (0.93)
SOFA score, estimated difference (SE) vs. placebo [14]: −1.31 (1.39)
SOFA score evolution (change versus baseline, LOCF), LSMean (SE) [15]: −0.51 (0.81)
SOFA score, estimated difference (SE) vs. placebo [15]: 0.00 (1.31)
SOFA score evolution (change versus baseline, LOCF), LSMean (SE) [16]: −1.85 (0.52)
SOFA score, estimated difference (SE) vs. placebo [16]: −1.34 (1.16)
SOFA score evolution (change versus baseline, LOCF), LSMean (SE) (patients with high sTREM-1 at baseline (above median 433 pg/mL), Day 5, 0.3 mg/kg/h): −3.20 (0.90)
SOFA score, estimated difference (SE) vs. placebo (patients with high sTREM-1 at baseline (above median 433 pg/mL), Day 5, 0.3 mg/kg/h, 0.3 mg/kg): −2.85 (1.36)
SOFA score, estimated difference (SE) vs. placebo (patients with high sTREM-1 at baseline (above median 433 pg/mL), Day 5, 0.3 mg/kg/h, listed as nangibotide, 0.3 mg/kg): −2.85
SOFA score evolution (change versus baseline, LOCF), LSMean (SE) [17]: −1.83 (0.90)
SOFA score, estimated difference (SE) vs. placebo [17]: −1.48 (1.34)
SOFA score evolution (change versus baseline, LOCF), LSMean (SE) (patients with high sTREM-1 at baseline (above median 433 pg/mL), Day 5, 3.0 mg/kg/h): −0.51 (0.78)
SOFA score, estimated difference (SE) vs. placebo (patients with high sTREM-1 at baseline (above median 433 pg/mL), Day 5, 3.0 mg/kg/h, 3 mg/kg): −0.16 (1.27)
SOFA score, estimated difference (SE) vs. placebo (patients with high sTREM-1 at baseline (above median 433 pg/mL), Day 5, 3.0 mg/kg/h, listed as nangibotide, 3 mg/kg): −0.16
SOFA score evolution (change versus baseline, LOCF), LSMean (SE) (patients with high sTREM-1 at baseline (above median 433 pg/mL), Day 5, all nangibotide doses pooled): −1.85 (0.50)
dose response of SOFA score difference vs. placebo (patients with high sTREM-1 at baseline, 0.3 vs 3 mg/kg/h): inverse dose response
SOFA score evolution (change versus baseline, LOCF), LSMean (SE) [18]: −1.40 (0.80)
SOFA score, estimated difference (SE) vs. placebo [18]: 0.29 (1.13)
SOFA score evolution (change versus baseline, LOCF), LSMean (SE) [19]: −0.01 (0.88)
SOFA score, estimated difference (SE) vs. placebo [19]: 1.67 (1.20)
SOFA score evolution (change versus baseline, LOCF), LSMean (SE) [20]: −0.35 (1.06)
SOFA score, estimated difference (SE) vs. placebo [20]: 1.33 (1.33)
SOFA score evolution (change versus baseline, LOCF), LSMean (SE) [21]: −.059 (0.53)
SOFA score, estimated difference (SE) vs. placebo [21]: 1.10 (0.96)
SOFA score evolution (change versus baseline, LOCF), LSMean (SE) [22]: −2.99 (0.92)
SOFA score, estimated difference (SE) vs. placebo [22]: −0.86 (1.30)
SOFA score evolution (change versus baseline, LOCF), LSMean (SE) [23]: −1.62 (1.02)
SOFA score, estimated difference (SE) vs. placebo [23]: 0.51 (1.38)
SOFA score evolution (change versus baseline, LOCF), LSMean (SE) [24]: −1.87 (1.22)
SOFA score, estimated difference (SE) vs. placebo [24]: 0.26 (1.53)
SOFA score evolution (change versus baseline, LOCF), LSMean (SE) [25]: −2.16 (0.61)
SOFA score, estimated difference (SE) vs. placebo [25]: −0.03 (1.11)
SOFA score evolution (change versus baseline, LOCF), LSMean (SE) [26]: −2.68 (1.02)
SOFA score, estimated difference (SE) vs. placebo [26]: −0.57 (1.44)
SOFA score evolution (change versus baseline, LOCF), LSMean (SE) [27]: −1.51 (1.13)
SOFA score, estimated difference (SE) vs. placebo [27]: 0.61 (1.53)
